Results from EP3749673B1, “CRYSTALLINE FORM OF BICTEGRAVIR SODIUM” (Sandoz AG, priority 2018, dated 2019).

Key:
Format in all cases: physicochemical
[1] = Differential scanning calorimetry, resistance to temperature stress (solid-solid phase transition); settings: DSC, heating rate 10 K/min, 25 to 400 °C
Procedure: Bictegravir sodium Form II was investigated by DSC, which was performed on a Mettler Polymer DSC R instrument. The sample (3.77 mg) was heated in a 40 microliter aluminium pan with a pierced aluminium lid from 25 to 400 °C at a rate of 10 K/min. Nitrogen (purge rate 50 mL/min) was used as purge gas.

[2] = Initial dissolution behaviour (dissolution rate), about 100 mg suspended in 10 ml solvent, filtrate analysed by HPLC; settings: 24°C, stirring time 1 minute, approx. 100mg in 10ml
Procedure: The initial dissolution behavior of bictegravir sodium form II was compared with bictegravir sodium form I. Approximately 100mg Bictegravir-Na (Form I or Form II) were suspended at 24°C in 10ml solvent. Two different solvents were used for the study: 0,1M aqueous HCl solution and a phosphate buffer system (pH6,8; prepared according to "Küster Thiel - Rechentafeln dür die chemische Analytik").
After a stirring time of 1 minute a sample was taken and filtered throw a syringe filter. The received clear filtrate was analyzed by HPLC to determine the Bictegravir content. The HPLC-column was a YMC-Pack Pro C18 RS (150mm x 4.6mm) operated at 0.8 ml/min. Detection was at a wavelength of 254 nm. Mobile phases were sulfamic acid in water and acetonitrile, respectively, and were used as components of the gradient.

[3] = Storage stability (polymorphic stability determined by XRPD); settings: stored at 40°C/75% rh
Procedure: Thus bictegravir sodium form II is a storage stable (polymorphically stable as determined by XRPD for at least 1 month when stored at 40°C/75% rh) fast-dissolving crystalline form of bictegravir sodium with unexpected advantages over bictegravir sodium form I.

| temperature at which decomposition starts ([1]; Form I formed in situ from Form II) | amount dissolved after 1 minute ([2]; 0.1M HCl) [mg/mL] | amount dissolved after 1 minute ([2]; pH6.8 phosphate buffer system) [mg/mL] | onset temperature of exothermic peak (solid-solid phase transition from Form II to Form I) [1] | peak temperature of exothermic peak (solid-solid phase transition from Form II to Form I) [1] | polymorphically stable as determined by XRPD (storage time) [3] | Structure (SMILES) |
| --- | --- | --- | --- | --- | --- | --- |
| about 370 °C | 0.085 | 0.059 |  |  |  | O=C(NCc1c(F)cc(F)cc1F)c1cn2c(c(O)c1=O)C(=O)N1C3CCC(C3)OC1C2 (centres unmarked) [bictegravir sodium form I, bictegravir sodium] |
|  | 0.220 | 0.186 | about 313 °C | about 320 °C | at least 1 month | O=C(NCc1c(F)cc(F)cc1F)c1cn2c(c(O)c1=O)C(=O)N1C3CCC(C3)OC1C2 (centres unmarked) [bictegravir sodium form II, bictegravir sodium] |
